Data set [1] addresses Nonstructural protein 1 (Influenza A virus, UniProt Q194T2). It counts as functional, Influenza A virus (A/California/07/2009(H1N1)).
Data set [2] concerns the target T1, Apoptotic protease-activating factor 1 (Homo sapiens, UniProt O14727).
T1 sequence (O14727 whole entry): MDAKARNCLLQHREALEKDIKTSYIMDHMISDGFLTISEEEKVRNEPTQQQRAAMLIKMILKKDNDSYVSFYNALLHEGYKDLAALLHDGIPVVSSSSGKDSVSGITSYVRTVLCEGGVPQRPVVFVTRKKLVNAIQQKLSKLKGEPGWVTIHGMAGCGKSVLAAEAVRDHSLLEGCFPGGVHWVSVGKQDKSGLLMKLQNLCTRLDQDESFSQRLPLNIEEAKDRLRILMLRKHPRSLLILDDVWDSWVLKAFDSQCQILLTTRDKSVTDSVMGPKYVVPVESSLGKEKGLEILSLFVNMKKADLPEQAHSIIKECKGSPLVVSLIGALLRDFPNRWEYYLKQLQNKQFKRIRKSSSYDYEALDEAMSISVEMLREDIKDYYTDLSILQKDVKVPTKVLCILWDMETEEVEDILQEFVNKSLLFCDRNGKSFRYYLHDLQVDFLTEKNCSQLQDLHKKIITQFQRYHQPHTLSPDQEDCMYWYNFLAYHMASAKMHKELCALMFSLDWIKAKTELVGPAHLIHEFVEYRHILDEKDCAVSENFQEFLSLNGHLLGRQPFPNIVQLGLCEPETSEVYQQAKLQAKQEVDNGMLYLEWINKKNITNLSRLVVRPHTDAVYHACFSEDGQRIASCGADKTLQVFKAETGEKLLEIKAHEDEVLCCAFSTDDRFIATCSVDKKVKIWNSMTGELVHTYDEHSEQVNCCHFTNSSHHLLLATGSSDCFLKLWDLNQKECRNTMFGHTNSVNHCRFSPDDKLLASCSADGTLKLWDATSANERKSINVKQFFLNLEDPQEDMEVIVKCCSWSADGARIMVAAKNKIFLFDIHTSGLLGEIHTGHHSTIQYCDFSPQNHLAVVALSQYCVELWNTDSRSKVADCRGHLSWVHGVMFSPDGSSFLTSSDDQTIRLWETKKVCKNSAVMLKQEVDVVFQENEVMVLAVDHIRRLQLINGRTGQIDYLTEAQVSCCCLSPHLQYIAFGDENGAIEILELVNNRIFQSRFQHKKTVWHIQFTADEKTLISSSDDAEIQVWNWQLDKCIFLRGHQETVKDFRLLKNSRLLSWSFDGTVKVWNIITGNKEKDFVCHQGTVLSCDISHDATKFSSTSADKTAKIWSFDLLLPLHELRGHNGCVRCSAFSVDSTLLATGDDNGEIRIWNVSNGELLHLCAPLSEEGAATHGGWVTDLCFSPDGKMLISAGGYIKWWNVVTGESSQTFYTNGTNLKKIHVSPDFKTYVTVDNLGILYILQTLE
It counts as functional.

Data set [3] in a line: viability loss in THP-1 monocytes – THP-1 cells, cytotoxicity control for Vif-APOBEC3G degradation inhibitor project, dose response (AID 1117359). Format: functional. The following applies: THP-1.
In data set [4] the target is Induced myeloid leukemia cell differentiation protein Mcl-1 (Homo sapiens, UniProt Q07820). It counts as functional.
In data set [5] the target is T2, Polyadenylate-binding protein 1 (Homo sapiens, UniProt P11940). Description: MLLE binding blockers, Cy5 peptide tracer – biochemical, fluorescence polarization, Cy5-PAM2 peptide, secondary, miRNA deadenylation inhibitor project, dose response (AID 602260). Format: functional. The following applies: read-out: IC50_Mean. A general note: Polarisation of emitted light reports the rotation of a fluorescent probe.

Data set [6] has as its target T2, Polyadenylate-binding protein 1. Description: MLLE domain peptide-binding blockers, IC50 – biochemical, fluorescence polarization, FITC-PAM2 peptide, dose response (AID 602259). The following applies: read-out: IC50_Mean. It counts as functional.
Data set [7] concerns the target T3, DNA repair protein RAD52 homolog (Homo sapiens, UniProt P43351).
T3 sequence (P43351 whole entry): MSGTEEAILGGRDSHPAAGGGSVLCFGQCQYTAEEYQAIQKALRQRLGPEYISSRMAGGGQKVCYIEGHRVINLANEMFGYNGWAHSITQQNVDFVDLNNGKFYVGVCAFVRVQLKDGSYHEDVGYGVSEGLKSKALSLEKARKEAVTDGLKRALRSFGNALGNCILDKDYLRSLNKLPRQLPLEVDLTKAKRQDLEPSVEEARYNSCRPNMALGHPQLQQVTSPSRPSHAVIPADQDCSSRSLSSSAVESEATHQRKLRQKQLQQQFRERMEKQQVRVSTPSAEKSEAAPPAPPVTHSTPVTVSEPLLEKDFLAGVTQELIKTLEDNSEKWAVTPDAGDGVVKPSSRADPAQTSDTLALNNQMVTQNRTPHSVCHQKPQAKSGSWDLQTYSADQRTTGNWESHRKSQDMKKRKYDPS
It counts as functional, biochemical.

Data set [8] deals with T4, DNA repair and recombination protein RAD54-like (Homo sapiens, UniProt Q92698).
T4 sequence (Q92698 whole entry): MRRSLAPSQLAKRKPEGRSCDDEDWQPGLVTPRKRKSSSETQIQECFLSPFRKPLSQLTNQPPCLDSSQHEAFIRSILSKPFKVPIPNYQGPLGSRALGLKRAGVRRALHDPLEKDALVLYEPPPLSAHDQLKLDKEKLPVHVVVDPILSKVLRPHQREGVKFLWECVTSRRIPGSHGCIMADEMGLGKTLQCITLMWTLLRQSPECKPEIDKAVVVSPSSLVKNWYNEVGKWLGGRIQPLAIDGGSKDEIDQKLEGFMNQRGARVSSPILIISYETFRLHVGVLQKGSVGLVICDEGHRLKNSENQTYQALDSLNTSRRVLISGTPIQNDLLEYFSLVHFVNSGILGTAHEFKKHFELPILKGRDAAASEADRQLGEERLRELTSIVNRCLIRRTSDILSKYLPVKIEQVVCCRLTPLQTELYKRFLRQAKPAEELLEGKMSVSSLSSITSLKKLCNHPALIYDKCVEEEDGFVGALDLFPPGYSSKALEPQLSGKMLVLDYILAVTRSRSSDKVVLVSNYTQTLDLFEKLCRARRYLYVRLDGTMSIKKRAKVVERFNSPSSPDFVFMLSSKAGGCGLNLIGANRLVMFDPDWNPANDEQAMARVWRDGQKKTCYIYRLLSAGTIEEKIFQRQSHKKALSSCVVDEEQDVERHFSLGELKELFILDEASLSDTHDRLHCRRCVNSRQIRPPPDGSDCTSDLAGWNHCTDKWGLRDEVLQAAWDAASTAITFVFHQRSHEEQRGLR
The experiment in a line: RAD54 Holliday junction migration blockers – biochemical, fluorescence, cherry-picked samples, dose series, confirmation (AID 651657). It counts as functional.

The nature of data set [9]: reduction of Shn3 3'UTR-driven luciferase in osteoblasts – cell-based, Clone20 osteoblasts, firefly luciferase, cherry-picked, dose response (AID 624132).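 Note: firefly luciferase luminescence from reporter carrying the Shn3 3'UTR in osteoblasts.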 Format: functional.
Data set [10] in a line: non-specific 3'UTR reporter inhibition in Clone20-Shn3RL – cell-based, Renilla luciferase, cherry-picked, counter-screen for Shn3 inhibitor project, dose response (AID 624133). Format: functional. (Counterscreens check selectivity or assay interference.)
Data set [11] in a line: loss of viability in HepG2 cells – cell-based, CellTiter-Glo, cherry-picked, cytotoxicity control for Shn3 inhibitor project, dose response (AID 624134). It counts as functional. In general terms: ATP-based viability assays read luminescence as a measure of living cells.
The target of data set [12] is T5, Methionyl-tRNA synthetase, putative (Trypanosoma brucei brucei, UniProt Q38C91).
T5 sequence (Q38C91 whole entry): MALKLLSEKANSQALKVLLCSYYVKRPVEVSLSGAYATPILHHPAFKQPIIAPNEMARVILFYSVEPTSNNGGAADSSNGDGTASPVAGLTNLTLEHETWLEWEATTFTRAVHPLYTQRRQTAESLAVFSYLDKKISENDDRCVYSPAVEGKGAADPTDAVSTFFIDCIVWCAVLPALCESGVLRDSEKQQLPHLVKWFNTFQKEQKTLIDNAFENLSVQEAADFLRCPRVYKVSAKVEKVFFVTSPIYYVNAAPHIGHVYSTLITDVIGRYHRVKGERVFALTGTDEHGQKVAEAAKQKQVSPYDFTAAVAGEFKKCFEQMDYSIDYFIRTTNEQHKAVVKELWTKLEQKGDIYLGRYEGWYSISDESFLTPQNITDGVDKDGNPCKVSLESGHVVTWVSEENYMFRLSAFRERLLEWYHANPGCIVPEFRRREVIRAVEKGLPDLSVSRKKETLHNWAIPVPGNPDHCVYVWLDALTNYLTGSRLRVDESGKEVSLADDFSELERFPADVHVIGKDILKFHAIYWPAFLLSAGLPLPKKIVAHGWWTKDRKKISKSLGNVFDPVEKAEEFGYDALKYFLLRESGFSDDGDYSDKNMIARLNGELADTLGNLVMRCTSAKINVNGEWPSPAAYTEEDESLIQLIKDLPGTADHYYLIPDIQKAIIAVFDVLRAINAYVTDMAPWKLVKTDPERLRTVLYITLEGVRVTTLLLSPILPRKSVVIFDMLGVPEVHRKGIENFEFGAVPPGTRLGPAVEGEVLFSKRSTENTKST
Format: functional, Trypanosoma brucei brucei strain 927/4 GUTat10.1.

For data set [13], the target named is T5, Methionyl-tRNA synthetase, putative. Format: functional, Trypanosoma brucei brucei strain 927/4 GUTat10.1. This is another data set of the same source.
For data set [14], the system named is Streptococcus sp. 'group A'. Description: Streptococcus pyogenes SK(-)GAS viability under kanamycin – luminescence, BacTiterGlo, confirmation, counter-screen for streptokinase expression inhibitor project, dose response (AID 1900). It counts as functional, organism-based.
The nature of data set [15]: Counterscreen for inhibitors of Trypanosoma brucei methionyl tRNA synthetase (MetRS): Luminescence-based cell-based high throughput dose response assay to identify compounds that are cytotoxic to Jurkat human T lymphocyte cells. Format: functional.
Data set [16] addresses T6, Streptokinase A (Streptococcus pyogenes serotype M1, UniProt P10520).
T6 sequence (P10520 whole entry): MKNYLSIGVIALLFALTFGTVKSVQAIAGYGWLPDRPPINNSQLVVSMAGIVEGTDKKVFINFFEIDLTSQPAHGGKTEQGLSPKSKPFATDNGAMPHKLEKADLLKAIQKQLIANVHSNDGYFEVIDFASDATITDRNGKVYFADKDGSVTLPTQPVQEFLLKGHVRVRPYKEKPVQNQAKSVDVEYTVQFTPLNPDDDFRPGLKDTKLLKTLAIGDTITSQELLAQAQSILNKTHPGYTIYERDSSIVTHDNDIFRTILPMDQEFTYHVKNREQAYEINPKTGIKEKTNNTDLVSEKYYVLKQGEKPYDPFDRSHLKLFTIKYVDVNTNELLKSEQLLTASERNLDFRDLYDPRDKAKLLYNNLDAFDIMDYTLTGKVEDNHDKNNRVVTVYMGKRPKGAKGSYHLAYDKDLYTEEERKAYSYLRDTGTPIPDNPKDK
The experiment in a line: viability-normalized secreted streptokinase activity reduction – plasminogen activation absorbance, OD405, dose response (AID 1914).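 Note: secreted streptokinase activity via plasminogen activation per viability signal from cell pellet.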 It counts as functional, Streptococcus pyogenes M1 GAS.

In data set [17] the test system is Streptococcus. Description: GAS UMAA2166 growth inhibition – luminescence, BacTiterGlo, counter-screen for streptokinase expression inhibitor project, dose response (AID 1915).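 Note: potency for reduction of bacterial viability or growth.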 Format: functional, organism-based.
In data set [18] the target is Cytochrome P450 2C9 (Homo sapiens, UniProt P11712).
Data set [19] deals with DNA dC->dU-editing enzyme APOBEC-3A (Homo sapiens, UniProt P31941). The experiment in a line: SAR analysis of small molecule inhibitors of APOBEC3A DNA Deaminase via a fluorescence-based single-stranded DNA deaminase assay. It counts as functional. The following applies: read-out: IC50_Mean.
For data set [20], the target named is DNA dC->dU-editing enzyme APOBEC-3G (Homo sapiens, UniProt Q9HC16). Description: inhibition of APOBEC3G ssDNA deamination – biochemical, fluorescence, single-stranded DNA substrate, SAR follow-up (AID 602136). It counts as functional. The following applies: read-out: IC50_Mean.

Broadly, the CC50 is the concentration that lowers cell viability or growth by half. A word on the AC50: it is the midpoint of the concentration-response curve, whichever way the signal moves. Broadly, the EC50 is the concentration at which the effect is half-maximal.

The source made the active and inactive calls.

Chain of DNA dC->dU-editing enzyme APOBEC-3G (Q9HC16 whole entry): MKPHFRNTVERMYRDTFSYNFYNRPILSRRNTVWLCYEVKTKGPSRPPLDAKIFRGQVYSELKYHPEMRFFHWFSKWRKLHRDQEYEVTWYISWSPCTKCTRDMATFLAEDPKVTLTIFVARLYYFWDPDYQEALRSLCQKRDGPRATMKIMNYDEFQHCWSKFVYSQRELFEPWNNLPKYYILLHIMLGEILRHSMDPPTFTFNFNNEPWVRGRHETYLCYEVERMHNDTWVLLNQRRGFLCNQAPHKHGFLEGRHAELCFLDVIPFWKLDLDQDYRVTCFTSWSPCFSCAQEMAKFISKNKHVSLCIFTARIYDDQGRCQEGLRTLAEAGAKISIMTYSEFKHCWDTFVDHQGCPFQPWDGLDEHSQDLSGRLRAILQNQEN
T2 sequence (P11940 whole entry): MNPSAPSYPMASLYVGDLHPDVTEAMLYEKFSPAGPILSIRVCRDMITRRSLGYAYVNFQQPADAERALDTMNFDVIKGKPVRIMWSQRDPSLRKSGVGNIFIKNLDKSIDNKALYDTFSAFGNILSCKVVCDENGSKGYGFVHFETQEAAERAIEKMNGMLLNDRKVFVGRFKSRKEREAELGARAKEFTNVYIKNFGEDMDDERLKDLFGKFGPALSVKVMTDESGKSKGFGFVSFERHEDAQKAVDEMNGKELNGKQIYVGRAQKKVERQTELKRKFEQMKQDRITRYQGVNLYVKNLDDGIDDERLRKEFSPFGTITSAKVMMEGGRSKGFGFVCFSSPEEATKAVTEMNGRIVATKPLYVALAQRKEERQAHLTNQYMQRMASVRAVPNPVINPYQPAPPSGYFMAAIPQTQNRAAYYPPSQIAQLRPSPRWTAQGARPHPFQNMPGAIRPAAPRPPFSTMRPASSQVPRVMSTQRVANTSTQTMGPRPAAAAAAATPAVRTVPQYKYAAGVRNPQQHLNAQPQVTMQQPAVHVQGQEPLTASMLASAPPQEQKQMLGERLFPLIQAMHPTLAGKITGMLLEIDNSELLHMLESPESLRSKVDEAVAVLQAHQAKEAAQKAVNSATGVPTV
Chain of DNA dC->dU-editing enzyme APOBEC-3A (P31941 whole entry): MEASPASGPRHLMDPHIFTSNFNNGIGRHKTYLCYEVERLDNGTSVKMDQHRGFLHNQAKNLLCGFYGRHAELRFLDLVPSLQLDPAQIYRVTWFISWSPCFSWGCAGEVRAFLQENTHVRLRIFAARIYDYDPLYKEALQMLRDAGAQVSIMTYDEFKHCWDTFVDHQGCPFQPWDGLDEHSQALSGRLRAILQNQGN
Chain of Nonstructural protein 1 (Q194T2 whole entry): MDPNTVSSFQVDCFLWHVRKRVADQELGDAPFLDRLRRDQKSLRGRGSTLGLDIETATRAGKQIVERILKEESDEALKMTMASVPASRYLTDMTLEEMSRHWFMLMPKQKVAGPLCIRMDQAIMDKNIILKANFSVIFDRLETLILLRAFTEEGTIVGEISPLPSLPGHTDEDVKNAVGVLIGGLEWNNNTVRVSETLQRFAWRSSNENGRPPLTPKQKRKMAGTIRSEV
Chain of Induced myeloid leukemia cell differentiation protein Mcl-1 (Q07820 whole entry): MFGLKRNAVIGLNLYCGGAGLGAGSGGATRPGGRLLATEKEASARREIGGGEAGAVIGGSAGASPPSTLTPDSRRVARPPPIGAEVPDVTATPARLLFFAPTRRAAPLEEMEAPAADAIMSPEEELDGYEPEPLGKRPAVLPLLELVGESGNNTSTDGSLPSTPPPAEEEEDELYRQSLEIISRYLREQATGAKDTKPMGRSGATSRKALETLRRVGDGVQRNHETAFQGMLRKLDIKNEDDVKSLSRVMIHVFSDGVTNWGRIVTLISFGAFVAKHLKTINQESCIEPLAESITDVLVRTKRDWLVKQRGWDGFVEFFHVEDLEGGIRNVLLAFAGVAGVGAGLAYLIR
Chain of Cytochrome P450 2C9 (P11712 whole entry): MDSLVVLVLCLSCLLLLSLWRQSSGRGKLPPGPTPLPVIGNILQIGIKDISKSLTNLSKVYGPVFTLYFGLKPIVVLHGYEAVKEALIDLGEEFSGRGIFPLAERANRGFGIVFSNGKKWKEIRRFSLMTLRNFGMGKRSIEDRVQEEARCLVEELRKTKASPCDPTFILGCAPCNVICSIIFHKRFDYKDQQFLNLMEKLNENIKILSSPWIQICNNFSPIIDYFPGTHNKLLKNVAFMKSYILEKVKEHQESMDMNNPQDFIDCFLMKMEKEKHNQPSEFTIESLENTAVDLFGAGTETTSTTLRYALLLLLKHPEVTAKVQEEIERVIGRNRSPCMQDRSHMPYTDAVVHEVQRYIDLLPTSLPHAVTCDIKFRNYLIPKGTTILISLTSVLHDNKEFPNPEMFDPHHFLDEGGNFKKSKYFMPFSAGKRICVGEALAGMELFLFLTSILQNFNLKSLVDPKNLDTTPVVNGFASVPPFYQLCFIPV

On to `CCOC(=O)C1CCCN(C2=C(NS(=O)(=O)c3ccc(Br)cc3)C(=O)c3ccccc3C2=O)C1` (configuration not stated), for which the IC50 is 15.9 µM (active) in data set [1] and 19.5 µM (active) in data set [2].
Take `COc1ccc2c(c1)c1ccc3c(c1n2C)C(=O)C=CC3=O`: in data set [3], the CC50 is 18 µM (active). The IC50 in data set [2] is 19.3 µM (active); in data set [4], 0.946 µM (active); in data set [5] it was > 66 µM (inactive); in data set [6], 58.5 µM (inactive).
As to `Cc1cccn2c(=O)c3cc(C(=O)NCCN4CCOCC4)c(=N)n(CCN4CCOCC4)c3nc12`, the figures for the AC50 in data set [7] and in data set [8] were 13.7 µM (active) and 15.9 µM (active), respectively.
As to `O=C(c1ccc(Cl)cc1)C1CCCN(Cc2cccc3ncccc23)C1` (configuration not stated), the AC50 in data set [9] was 4.52 µM (active); in [10], 7.83 µM (active); in data set [11], > 70 µM (inactive).
In the case of `COc1ccc(Nc2c3c(nc4ccc(C)cc24)CCC3)cc1`, the concentration at half-maximal activity (AC50) in data set [8] is 84.4 µM (active).
As for `S=C(NCc1cccs1)Nc1cc(Cl)cc(Cl)c1`, the IC50 in data set [12] is 104 µM (inactive); in [13], 24.6 µM (inactive); in data set [15], 34.5 µM (inactive). The results for the EC50 in [14], in [16] and in data set [17] were 5.49 µM (active), > 150 µM (not active) and 13.7 µM (active), respectively.
`COc1cc(CNc2[nH]cnc3c4cc(C)ccc4nc2-3)cc(OC)c1`: the IC50 in data set [12] was 1.46 µM (active); in data set [13] it was 2.32 µM (active); in data set [15], 27.8 µM (inactive).
Regarding `C#CCSc1nnc(-c2cc3c(C(F)(F)F)nn(C)c3s2)n1C`, in [18], the AC50 result is reported as “inconclusive”. For the same compound, the IC50 in data set [19] and in [20] was > 99 µM (inactive) throughout.
Regarding `O=C(c1nn2c(C(F)(F)F)cc(-c3ccc(Cl)cc3)nc2c1Cl)N1CCCC1`, the IC50 in data set [19] and in data set [20] was > 99 µM (inactive) throughout.

These data come from ChEMBL document CHEMBL1201862, “PubChem BioAssay data set” (2004).
